Assay results reported in patent publication US20250074910A1, “MENIN INHIBITOR AND USE THEREOF” (HITGEN INC., priority 2021, published 2025).

Legend:
[1] = tested on: MOLM-13; experiment: Cell proliferation inhibition (CellTiter-Glo), MOLM-13; format: cell-based; conditions: MOLM-13 cells
Protocol: (§1) Test Example 2: Test of the Inhibitory Ability of Menin-MLL Interaction Inhibitors on Cell Proliferation
(§2) The inhibitory ability of the compounds of the present disclosure on the proliferation of tumor cell lines (including cell lines containing MLL fusion protein such as MV4-11, MOLM-13, THP-1 and NOMO-1, control cell lines without MLL fusion protein such as HL-60, K562 and MOLM-16, and cell lines containing NPM1 mutation such as OCI-AML3) was evaluated by using the cell viability analysis method. The cells were plated in 96-well plates at a certain concentration (e.g., 5,000-20,000 cells/well), and then an equal volume of culture medium containing 2 times the final concentration of the test compound (the final concentration ranging 10 from 1 nM to 10 μM) was added. The plates were placed in an incubator and cultured at 37° C. and 5% CO2 for 72-168 h. Before the test, an equal volume of CellTiter-Glo® Luminescent reagent was added, and the plate was incubated at room temperature for 10 min before detection using an ELISA reader (BMG LABTECH). The data were analyzed using GraphPad Prism software to obtain the IC50 value and compound fitting curve. The control compound 1 was prepared by referring to the method of Example 64 in WO2017214367.

[2] = target: Menin/MLL-4-43 peptide interaction (Homo sapiens (Human), UniProt O00255); experiment: Menin-MLL interaction inhibitory activity assay (fluorescence polarization competition); format: binding; conditions: FITC-MLL4-43-peptide, Menin recombinant protein
Protocol: Test Example 1: Menin-MLL Interaction Inhibitory Activity Assay
The inhibition of Menin/MLL-4-43 peptide interaction by small molecule inhibitors was quantitatively detected by fluorescence polarization competition assay. The experiment was performed in a 384-well plate (Corning, Cat #3575) using a reaction buffer consisting of 50 mM Tris, pH 7.5, 50 mM NaCl, and 1 mM DTT. A 40 μL reaction system included 10 μL of 8 nM Menin recombinant protein and 10 μL of the test compound at different concentrations. The compound was pre-incubated with Menin protein for 15 min, and then 20 μL of 10 nM FITC-MLL4-43-peptide was added. After incubation on a shaker at 25° C. for 60 min, the fluorescence polarization signal (FP 485 520 520) was read using BMG PHERAStar detection. The experimental data was analyzed and processed by GraphPad Prism 6 software to obtain the IC50 value. The control compound 1 was prepared by referring to the method of Example 64 in WO2017214367.

[3] = tested on: OCI-AML3; experiment: Cell proliferation inhibition (CellTiter-Glo), OCI-AML3 (NPM1 mutation); format: cell-based; conditions: OCI-AML3 cells
Protocol: as §1, §2

[4] = tested on: MV4-11; experiment: Cell proliferation inhibition (CellTiter-Glo), MV4-11; format: cell-based; conditions: MV4-11 cells
Protocol: as §1, §2

Sequence of Menin/MLL-4-43 peptide interaction (O00255 whole entry, species assumed): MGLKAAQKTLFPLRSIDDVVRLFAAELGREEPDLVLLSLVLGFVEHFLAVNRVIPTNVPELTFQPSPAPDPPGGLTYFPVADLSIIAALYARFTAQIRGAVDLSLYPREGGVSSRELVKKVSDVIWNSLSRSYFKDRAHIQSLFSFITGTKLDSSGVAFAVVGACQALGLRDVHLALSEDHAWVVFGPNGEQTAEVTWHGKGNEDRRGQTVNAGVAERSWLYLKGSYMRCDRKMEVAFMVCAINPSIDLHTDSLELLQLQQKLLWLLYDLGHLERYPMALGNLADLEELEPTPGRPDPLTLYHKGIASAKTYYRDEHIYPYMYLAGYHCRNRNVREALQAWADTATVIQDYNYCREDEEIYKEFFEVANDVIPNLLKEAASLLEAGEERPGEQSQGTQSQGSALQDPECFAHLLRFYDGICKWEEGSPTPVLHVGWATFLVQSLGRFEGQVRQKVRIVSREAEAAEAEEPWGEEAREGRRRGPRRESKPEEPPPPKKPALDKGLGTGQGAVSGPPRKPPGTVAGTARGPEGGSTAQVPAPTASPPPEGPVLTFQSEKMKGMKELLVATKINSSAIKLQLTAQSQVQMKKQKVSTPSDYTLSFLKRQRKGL

Structure (SMILES) | GI50 ([1]; Homo sapiens, MOLM-13, 168 h) [nM] | IC50 [2] [nM] | GI50 ([3]; Homo sapiens, OCI-AML-3, 168 h) [nM] | GI50 ([4]; 72 h) [nM] | GI50 ([4]; Homo sapiens, MV4-11, 72 h) [nM] | GI50 ([1]; 168 h) [nM] | GI50 ([3]; 168 h) [nM]
CCN(C(=O)c1cc(F)ccc1Oc1nncnc1N1CC2(CCN(C[C@H]3CC[C@]4(CC3)CC(C)C(=O)N4)CC2)C1)C(C)C (single isomer, unassigned) [Example 40-1] | 122 | 14.8 | 199 | 41.2 |  |  | 
CC(C)N(C(=O)c1cc(F)ccc1Oc1nncnc1N1CC2(CCN(C[C@H]3CC[C@]4(CC3)CC(C)(C)C(=O)N4)CC2)C1)C1CC1 [Example 30] | 197 | 33 | 52 |  | 35.2 |  | 
CC(C)N(C(=O)c1cc(F)ccc1Oc1nncnc1N1CC2(CCN(C[C@H]3CC[C@]4(CC3)CC(C(C)(C)O)C(=O)N4)CC2)C1)C(C)C (single isomer, unassigned) [Example 59-1a] | 36.2 | 7.8 | 18.5 |  | 9.6 |  | 
CCN(C(=O)c1cc(F)ccc1Oc1cncnc1N1CC2(CCN(CC3CC4CCC3CC43COC(=O)N3)CC2)C1)C(C)C (single isomer, unassigned) [Example 50-2b] |  | 61.1 |  | 26.4 |  | 93.3 | 119
CCN(C(=O)c1cc(F)ccc1Oc1cncnc1N1CC2(CCN(CC3CC4CCC3CC43CCC(=O)N3)CC2)C1)C(C)C (single isomer, unassigned) [Example 3-1] | 47.4 | 29 | 66.5 | 324 |  |  | 
CC(C)=C1C[C@]2(CC[C@@H](CN3CCC4(CC3)CN(c3ncnnc3Oc3ccc(F)cc3C(=O)N(C(C)C)C(C)C)C4)CC2)NC1=O [Example 61] | 108 | 25.5 | 72.1 |  | 23 |  | 
CC(C)N(C(=O)c1cc(F)ccc1Oc1nncnc1N1CC2(CCN(C[C@H]3CC[C@]4(CC3)CC(C)(C)C(=O)N4)CC2)C1)C1CCC1 [Example 32] | 179 | 39.3 | 63.6 |  | 17.8 |  | 
CCN(C(=O)c1cc(F)ccc1Oc1cncnc1N1CC2(CCN(CC3CC4CCC3CC43COC(=O)N3)CC2)C1)C(C)C (single isomer, unassigned) [Example 50-1b] | 88.9 | 21.8 |  |  | 26.4 |  | 61.7
CCN(C(=O)c1cc(F)ccc1Oc1cncnc1N1CC2(CCN(C[C@H]3CC[C@]4(CC3)CC(C)(C)C(=O)N4)CC2)C1)C(C)C [Example 21] |  | 9.8 | 39.8 |  | 13.1 |  | 
CCN(C(=O)c1cc(F)ccc1Oc1nncnc1N1CC2(CCN(C[C@H]3CC[C@]4(CC3)CC(=C(C)C)C(=O)N4)CC2)C1)C(C)C [Example 60] | 175 | 28.4 | 92.4 |  | 35 |  | 
CC(C)N(C(=O)c1cc(F)ccc1Oc1nncnc1N1CC2(CCN(CC3CC4CCC3CC43COC(=O)N3)CC2)C1)C(C)C (single isomer, unassigned) [Example 52-1b] |  | 38.7 | 40 | 11.9 |  |  | 
CC(C)N(C(=O)c1cc(F)ccc1Oc1cncnc1N1CC2(CCN(C[C@H]3CC[C@]4(CC3)CC(C)(C)C(=O)N4)CC2)C1)C1CCC1 [Example 25] | 86.3 | 31.2 | 64.3 |  | 6.9 |  | 
CC(C)N(C(=O)c1cc(F)ccc1Oc1nncnc1N1CC2(CCN(C[C@H]3CC[C@]4(CC3)CC(C)(C)C(=O)N4)CC2)C1)C(C)C [Example 27] |  | 16.3 | 32.1 |  | 13 |  | 
CCN(C(=O)c1cc(F)ccc1Oc1cncnc1N1CC2(CCN(CC3CC4CCC3CC43COC(=O)N3)CC2)C1)C(C)C (single isomer, unassigned) [Example 50-2a] |  | 21.1 |  | 20.5 |  | 125 | 56.4
CC(C)N(C(=O)c1cc(F)ccc1Oc1cncnc1N1CC2(CCN(CC3CC4CCC3CC43COC(=O)N3)CC2)C1)C(C)C (single isomer, unassigned) [Example 51-1b] |  | 46.7 | 20.3 |  | 16.1 |  | 

Further lines, results first:

GI50 ([1]; Homo sapiens, MOLM-13, 168 h) [nM] | IC50 [2] [nM] | GI50 ([3]; Homo sapiens, OCI-AML-3, 168 h) [nM] | GI50 ([4]; 72 h) [nM] | GI50 ([4]; Homo sapiens, MV4-11, 72 h) [nM] | GI50 ([1]; 168 h) [nM] | GI50 ([3]; 168 h) [nM] | Structure (SMILES)
 | 48.7 |  | 90 |  | 137 | 80.6 | [2H]C([2H])([2H])C1C[C@]2(CC[C@@H](CN3CCC4(CC3)CN(c3ncnnc3Oc3ccc(F)cc3C(=O)N(C(C)C)C(C)C)C4)CC2)NC1=O (single isomer, unassigned) [Example 43-2]
 | 7.9 |  | 9.7 |  | 30.4 | 26.4 | CC(C)N(C(=O)c1cc(F)ccc1Oc1nncnc1N1CC2(CCN(CC3CCC4(CC3)CC3(CC3)C(=O)N4)CC2)C1)C(C)C (single isomer, unassigned) [Example 44-2]
55.9 | 2.5 | 34.7 |  | 15.3 |  |  | CC(C)N(C(=O)c1cc(F)ccc1Oc1nncnc1N1CC2(CCN(C[C@H]3CC[C@]4(CC3)CC(C(C)(C)O)C(=O)N4)CC2)C1)C(C)C (stereo partly drawn) [Example 59-1]
101 | 35.3 | 68.5 |  | 21.1 |  |  | CC(C)N(C(=O)c1cc(F)ccc1Oc1cncnc1N1CC2(CCN(CC3CC4CCC3CC43COC(=O)N3)CC2)C1)C(C)C (single isomer, unassigned) [Example 51-1]
 | 47.6 |  | 18.8 |  | 93.3 | 35.3 | CC(C)N(C(=O)c1cc(F)ccc1Oc1cncnc1N1CC2(CCN(CC3CC4CCC3CC43COC(=O)N3)CC2)C1)C(C)C (single isomer, unassigned) [Example 51-2]
 | 48.8 |  |  | 16.7 | 111 | 60.5 | CC(C)N(C(=O)c1cc(F)ccc1Oc1nncnc1N1CC2(CCN(CC3CCC4(CC3)CC3(CC3)C(=O)N4)CC2)C1)C(C)C (single isomer, unassigned) [Example 44-1]
88.9 | 2.9 | 42.4 |  | 17.2 |  |  | CCN(C(=O)c1cc(F)ccc1Oc1nncnc1N1CC2(CCN(C[C@H]3CC[C@]4(CC3)CC(C(C)(C)O)C(=O)N4)CC2)C1)C(C)C (stereo partly drawn) [Example 58-1]
